Source: patent US11591299B1, “Prodrug compound of levosimendan, preparation method and use thereof” (Beijing Chenguang Tongchuang Pharmaceutical Research …, priority 2022, dated 2023)

Columns and labels:
[1] = general statement, no test described; cited from earlier work
[2] = Pharmacokinetic study: metabolism of prodrug and conversion to levosimendan in plasma after in vivo administration; details: for ranking of metabolic conversion rates among the 13 prodrug molecules: in plasma within 10 minutes
Protocol: FIGS. 4-6 are the change profile of the content of compound TCX1001-031 itself in plasma after administration in the pharmacokinetic study, the change profile of the content of released levosimendan, and the pharmacokinetic metabolic conversion rate, respectively.
The conversion rates of these compounds to levosimendan in plasma within 10 minutes are approximately 30-45%.

[3] = Solubility determination in water (Chinese Pharmacopoeia 2020 solubility test method); assay type: physicochemical; details: 25° C.±2° C., dissolution observed within 30 minutes
Protocol: The determination is based on the solubility test method in General Example 15 of Part IV in “Chinese Pharmacopoeia (2020 Edition)”: the test product was ground into fine powders, and water at about 25° C. is added in a certain water bath at 25° C.±2° C., and shaken vigorously for 30 seconds every 5 minutes, to observe the dissolution within 30 minutes. If there are no visible solute particles, it is regarded as complete dissolution.

Structure (SMILES)	solubility in water [3]	further results
C[C@@H]1CC(=O)NN=C1c1ccc(NN=C(C#N)C#N)cc1 [Levosimendan, (R)-[[4-(1,4,5,6-tetrahydro-4-methyl-6-oxo-pyridazin-3-yl)phenyl]-hydrazono]-malononitrile]		solubility of levosimendan in most organic solvents [1]: insoluble or extremely poorly soluble; solubility of levosimendan in water [1]: insoluble
C[C@@H]1CC(=O)N(COC(=O)c2cccnc2)N=C1c1ccc(NN=C(C#N)C#N)cc1 [TCX-1001-029, (R)-(3-((4-(2-(dicyanomethylene)hydrazino)phenyl)-4-methyl-6-oxo-5,6-dihydropyridazin-1(4H)-yl)methyl nicotinate]	[drawing 7] Rp = pyridin-3-yl Chemical name: (R)-(3-((4-(2- (dicyanomethylene)hydrazino)phenyl)- 4-methyl-6-oxo-5,6-dihydropyridazin- 1(4H)-yl)methyl nicotinate (TCX-1001-029) This product is extremely slightly soluble in water	ranking of metabolic conversion rates among the 13 prodrug molecules [2]: highest
C[C@@H]1CC(=O)N(COC(=O)CN(C)C)N=C1c1ccc(NN=C(C#N)C#N)cc1 [TCX-1001-030]	[drawing 6] Rp = N,N-dimethylaminomethyl Chemical name: (R)-(3-((4-(2- (dicyanomethylene)hydrazino)phenyl)- 4-methyl-6-oxo-5,6-dihydropyridazin- 1(4H)-yl)m ethyl N,N- dimethylglycinate (TCX-1001-030) This product is slightly soluble in water	ranking of metabolic conversion rates among the 13 prodrug molecules [2]: highest
C[C@@H]1CC(=O)N(COC(=O)c2ccc(CN3CCOCC3)cc2)N=C1c1ccc(NN=C(C#N)C#N)cc1 [TCX-1001-031]	[drawing 4] Rp = 4-(morpholin-1-ylmethyl)phenyl Chemical name: (R)-(3-((4-(2- (dicyanomethylene)hydrazino)phenyl)- 4-methyl-6-oxo-5,6-dihydropyridazin- 1(4H)-yl)methyl 4-(morpholin-1-ylmethyl)benzoate (TCX-1001-031) This product is sparingly soluble in water	ranking of metabolic conversion rates among the 13 prodrug molecules [2]: highest; time to complete metabolism of the prodrug (content drops to 0) ([2]; plasma, after in vivo administration): ≤ 1 min
C[C@@H]1CC(=O)N(COC(=O)CN)N=C1c1ccc(NN=C(C#N)C#N)cc1 [TCX-1001-032, (R)-(3-((4-(2-(dicyanomethylene)hydrazino)phenyl)-4-methyl-6-oxo-5,6-dihydropyridazin-1(4H)-yl)methyl glycinate]	[drawing 9] Rp = aminomethyl Chemical name: (R)-(3-((4-(2- (dicyanomethylene)hydrazino)phenyl)- 4-methyl-6-oxo-5,6-dihydropyridazin- 1(4H)-yl)m ethyl glycinate (TCX-1001-032) This product is slightly soluble in water	
C[C@@H]1CC(=O)N(COC(=O)c2ccc(CN3CCN(C)CC3)cc2)N=C1c1ccc(NN=C(C#N)C#N)cc1 [TCX-1001-033]	[drawing 5] Rp = 4-(4-methylpiperazin-1-ylmethyl)phenyl Chemical name: (R)-(3-((4-(2- (dicyanomethylene)hydrazino)phenyl)- 4-methyl-6-oxo-5,6-dihydropyridazin- 1(4H)-yl)methyl 4-((4- methylpiperazin-1-yl)methyl)benzoate (TCX-1001-033) This product is sparingly soluble in water	ranking of metabolic conversion rates among the 13 prodrug molecules [2]: highest
C[C@@H]1CC(=O)N(COC(=O)CCC(=O)O)N=C1c1ccc(NN=C(C#N)C#N)cc1 [TCX-1001-034]	[drawing 13] Rp = carboxyl ethyl Chemical name: (R)-(3-((4-(2- (dicyanomethylene)hydrazino)phenyl)- 4-methyl-6-oxo-5,6-dihydropyridazin- 1(4H)-yl)methyl 3-carboxylpropionate (TCX-1001-034) This product is slightly soluble in water	
C[C@@H]1CC(=O)N(COC(=O)OCC(=O)O)N=C1c1ccc(NN=C(C#N)C#N)cc1 [TCX-1001-035, (R)-(3-((4-(2-(dicyanomethylene)hydrazino)phenyl)-4-methyl-6-oxo-5,6-dihydropyridazin-1(4H)-yl)methyl carboxylmethyloxyformate]	[drawing 14] Rp = carboxylmethoxy Chemical name: (R)-(3-((4-(2- (dicyanomethylene)hydrazino)phenyl)- 4-methyl-6-oxo-5,6-dihydropyridazin- 1(4H)-yl)methyl carboxylmethyloxyformate (TCX-1001-035) This product is slightly soluble in water	
C[C@@H]1CC(=O)N(COC(=O)CC(=O)NCc2ccncc2)N=C1c1ccc(NN=C(C#N)C#N)cc1 [TCX-1001-036]	[drawing 10] Rp = pyridin-4-ylmethylaminoformylmethyl Chemical name: (R)-(3-((4-(2- (dicyanomethylene)hydrazino)phenyl)- 4-methyl-6-oxo-5,6-dihydropyridazin- 1(4H)-yl)methyl 3-oxo-3-((pyridin-4-ylmethyl)amino)propionate (TCX-1001-036) This product is extremely slightly soluble in water	
C[C@@H]1CC(=O)N(COC(=O)N2CCC(N3CCCCC3)CC2)N=C1c1ccc(NN=C(C#N)C#N)cc1 [TCX-1001-037]	[drawing 8] Rp = 4-(piperidin-1-yl)-piperidin-1-yl Chemical name: (R)-(3-((4-(2- (dicyanomethylene)hydrazino)phenyl)- 4-methyl-6-oxo-5,6-dihydropyridazin- 1(4H)-yl)methyl 4-(piperidin-1-yl)piperidin-1-ylformate (TCX-1001-037) This product is sparingly soluble in water	
C[C@@H]1CC(=O)N(COC(=O)COS(=O)(=O)O)N=C1c1ccc(NN=C(C#N)C#N)cc1 [TCX-1001-038, (R)-(3-((4-(2-(dicyanomethylene)hydrazino)phenyl)-4-methyl-6-oxo-5,6-dihydropyridazin-1(4H)-yl)methyl sulfonyloxyacetate]	[drawing 16] Rp = sulfonyloxymethyl Chemical name: (R)-(3-((4-(2- (dicyanomethylene)hydrazino)phenyl)- 4-methyl-6-oxo-5,6-dihydropyridazin- 1(4H)-yl)methyl sulfonyloxyacetate (TCX-1001-038) This product is extremely soluble in water	
C[C@@H]1CC(=O)N(COC(=O)CN2CCCC2)N=C1c1ccc(NN=C(C#N)C#N)cc1 [TCX-1001-039]	[drawing 11] Rp = pyrrolidin-1-ylmethyl Chemical name: (R)-(3-((4-(2- (dicyanomethylene)hydrazino)phenyl)- 4-methyl-6-oxo-5,6-dihydropyridazin- 1(4H)-yl)methyl 2-pyrrolidin-1-yl- acetate (TCX-1001-03 9) This product is slightly soluble in water	
C[C@@H]1CC(=O)N(COC(=O)COP(=O)(O)O)N=C1c1ccc(NN=C(C#N)C#N)cc1 [TCX-1001-040, (R)-(3-((4-(2-(dicyanomethylene)hydrazino)phenyl)-4-methyl-6-oxo-5,6-dihydropyridazin-1(4H)-yl)methyl phosphoryloxyacetate]	[drawing 15] Rp = phosphoryloxymethyl Chemical name: (R)-(3-((4-(2- (dicyanomethylene)hydrazino)phenyl)- 4-methyl-6-oxo-5,6-dihydropyridazin- 1(4H)-yl)methyl phosphoryloxyacetate (TCX-1001-040) This product is extremely soluble in water	
C[C@@H]1CC(=O)N(COC(=O)CC(=O)O)N=C1c1ccc(NN=C(C#N)C#N)cc1 [TCX-1001-041, (R)-(3-((4-(2-(dicyanomethylene)hydrazino)phenyl)-4-methyl-6-oxo-5,6-dihydropyridazin-1(4H)-yl)methyl 2-carboxyl acetate]	[drawing 12] Rp = carboxylmethyl Chemical name: (R)-(3-((4-(2- (dicyanomethylene)hydrazino)phenyl)- 4-methyl-6-oxo-5,6-dihydropyridazin- 1(4H)-yl)methyl 2-carboxylacetate (TCX-1001-041) This product is slightly soluble in water	
